Values quoted from earlier work as cited in patent US20250231185A1, “Coronavirus T Cell Epitopes, Megapools and Uses Thereof” (La Jolla Institute for Immunology, priority 2021, published 2025).

Test system: CD8+ T cells
Settings: CD8R (D) megapool epitopes; dominant = recognized by 3 or more donors/different studies; cited from earlier work

Row | Substance | Dominant
1 | 1669 (KLLEQWNLV) [compound 1669] | Yes (more dominant epitopes are defined by being recognized by 3 or more donors/different studies)
2 | 1682 (NTASWFTAL) [compound 1682] | Yes (more dominant epitopes are defined by being recognized by 3 or more donors/different studies)
3 | 1777 (TSEDMLNPNY) [compound 1777] | Yes (more dominant epitopes are defined by being recognized by 3 or more donors/different studies)
4 | 1672 (TLACFVLAAV) [compound 1672] | Yes (more dominant epitopes are defined by being recognized by 3 or more donors/different studies)
5 | 1693 (VLQLPQGTTL) [compound 1693] | Yes (more dominant epitopes are defined by being recognized by 3 or more donors/different studies)
6 | 1685 (YYRRATRRIR) [compound 1685] | Yes (more dominant epitopes are defined by being recognized by 3 or more donors/different studies)
7 | 1744 (IEYPIIGDEL) [compound 1744] | Yes (more dominant epitopes are defined by being recognized by 3 or more donors/different studies)
8 | 1765 (YLATALLTL) [compound 1765] | Yes (more dominant epitopes are defined by being recognized by 3 or more donors/different studies)
9 | 1798 (YTELEPPCRF) [compound 1798] | Yes (more dominant epitopes are defined by being recognized by 3 or more donors/different studies)
10 | 1778 (TPKYKFVRI) [compound 1778] | Yes (more dominant epitopes are defined by being recognized by 3 or more donors/different studies)
11 | 1812 (RARSVSPKL) [compound 1812] | Yes (more dominant epitopes are defined by being recognized by 3 or more donors/different studies)
12 | 1686 (RIRGGDGKMK) [compound 1686] | Yes (more dominant epitopes are defined by being recognized by 3 or more donors/different studies)
13 | 1671 (NRFLYIIKL) [compound 1671] | Yes (more dominant epitopes are defined by being recognized by 3 or more donors/different studies)
14 | 1809 (YYQLYSTQL) [compound 1809] | Yes (more dominant epitopes are defined by being recognized by 3 or more donors/different studies)
15 | 1768 (ASMPTTIAK) [compound 1768] | Yes (more dominant epitopes are defined by being recognized by 3 or more donors/different studies)
16 | 1759 (KLVNKFLAL) [compound 1759] | Yes (more dominant epitopes are defined by being recognized by 3 or more donors/different studies)
17 | 1816 (IQYIDIGNY) [compound 1816] | Yes (more dominant epitopes are defined by being recognized by 3 or more donors/different studies)
18 | 1799 (VTDTPKGPK) [compound 1799] | Yes (more dominant epitopes are defined by being recognized by 3 or more donors/different studies)
19 | 1734 (VVYRGTTTYK) [compound 1734] | Yes (more dominant epitopes are defined by being recognized by 3 or more donors/different studies)
20 | 1703 (GMSRIGMEV) [compound 1703] | Yes (more dominant epitopes are defined by being recognized by 3 or more donors/different studies)
21 | 1697 (QQQQGQTVTK) [compound 1697] | Yes (more dominant epitopes are defined by being recognized by 3 or more donors/different studies)
22 | 1675 (SMWSFNPET) [compound 1675] | Yes (more dominant epitopes are defined by being recognized by 3 or more donors/different studies)
23 | 1751 (KVDGVDVEL) [compound 1751] | Yes (more dominant epitopes are defined by being recognized by 3 or more donors/different studies)
24 | 1764 (TTDPSFLGRY) [compound 1764] | Yes (more dominant epitopes are defined by being recognized by 3 or more donors/different studies)

Same assay, conditions: CD8RE megapool peptides (non-spike SARS-CoV-2 antigens); dominant epitope Yes/No; cited from earlier work

Row | Substance | Dominant
25 | 2940 (MEVTPSGTWL) [compound 2940] | Yes (more dominant epitopes are defined by being recognized by 3 or more donors/different studies)
26 | 2937 (ASAFFGMSR) [compound 2937] | Yes (more dominant epitopes are defined by being recognized by 3 or more donors/different studies)
27 | 2944 (LPAADLDDF) [compound 2944] | Yes (more dominant epitopes are defined by being recognized by 3 or more donors/different studies)
28 | 2910 (SMWSFNPET) [compound 2910] | Yes (more dominant epitopes are defined by being recognized by 3 or more donors/different studies)
29 | 2921 (RIRGGDGKMK) [compound 2921] | Yes (more dominant epitopes are defined by being recognized by 3 or more donors/different studies)
30 | 2952 (KLFDRYFKY) [compound 2952] | Yes (more dominant epitopes are defined by being recognized by 3 or more donors/different studies)
31 | 3005 (YIFFASFYY) [compound 3005] | Yes (more dominant epitopes are defined by being recognized by 3 or more donors/different studies)
32 | 3027 (FTYASALWEI) [compound 3027] | Yes (more dominant epitopes are defined by being recognized by 3 or more donors/different studies)
33 | 2965 (LVLSVNPYV) [compound 2965] | Yes (more dominant epitopes are defined by being recognized by 3 or more donors/different studies)

Same assay, conditions: HLA-A*01:01 epitopes overlapping TTDPSFLGRY; Saini et al.; cited from earlier work

Row | Substance | dominance as reported
34 | TTDPSFLGRYM [nsp3 819-829] | particularly dominant

Same assay, conditions: SARS-CoV-2-derived CD8 epitopes; dominant = recognized by 3 or more donors/different studies; cited from earlier work

Row | Substance | Dominant
35 | 594 (YLFDESGEFKL) [compound 594] | Yes (more dominant epitopes are defined by being recognized by 3 or more donors/different studies)
36 | 683 (ITDVFYKENSY) [compound 683] | Yes (more dominant epitopes are defined by being recognized by 3 or more donors/different studies)
37 | 542 (MEVTPSGTWL) [compound 542] | Yes (more dominant epitopes are defined by being recognized by 3 or more donors/different studies)
38 | 502 (SPRWYFYYL) [compound 502] | Yes (more dominant epitopes are defined by being recognized by 3 or more donors/different studies)

Same assay, conditions: SARS-CoV-2 Ag S; T cell type recognizing the epitope; cited from earlier work

Row | Substance | Restriction
39 | 1402 (ALNTLVKQL) [compound 1402] | CD8
40 | 1332 (NTSNQVAVLY) [compound 1332] | CD8
41 | 1322 (FELLHAPATV) [compound 1322] | CD8
42 | 1445 (IITTDNTFV) [compound 1445] | CD8
43 | 1382 (ADAGFIKQY) [compound 1382] | CD8
44 | 1333 (TSNQVAVLY) [compound 1333] | CD8
45 | 1356 (AYSNNSIAI) [compound 1356] | CD8
46 | 1439 (VFVSNGTHW) [compound 1439] | CD8
47 | 1305 (YNYLYRLFR) [compound 1305] | CD8
48 | 1434 (VTYVPAQEK) [compound 1434] | CD8
49 | 1438 (GVFVSNGTHW) [compound 1438] | CD8
50 | 1449 (SFKEELDKY) [compound 1449] | CD8
51 | 1307 (KSNLKPFER) [compound 1307] | CD8
52 | 1328 (KFLPFQQFGR) [compound 1328] | CD8
53 | 1400 (LSSTASALGK) [compound 1400] | CD8
54 | 1306 (RLFRKSNLK) [compound 1306] | CD8
55 | 1465 (FDEDDSEPVL) [compound 1465] | CD8
56 | 1337 (QLTPTWRVY) [compound 1337] | CD8
57 | 1394 (IPFAMQMAY) [compound 1394] | CD8

Same assay, conditions: T cell subset (CD4 or CD8) recognizing the SARS-CoV-2-derived epitope; cited from earlier work

Row | Substance | Restriction
58 | 691 (YYKKDNSY) [compound 691] | CD8
59 | 652 (NINLHTQVV) [compound 652] | CD8
60 | 594 (YLFDESGEFKL) [compound 594] | CD8
61 | 582 (GETLPTEVL) [compound 582] | CD8
62 | 637 (AIVSTIQRK) [compound 637] | CD8
63 | 517 (SSRGTSPAR) [compound 517] | CD8
64 | 562 (VPHVGEIPV) [compound 562] | CD8
65 | 694 (ASFDNFKFV) [compound 694] | CD8
66 | 590 (VLNEKCSAY) [compound 590] | CD8
67 | 643 (SVYYTSNPTTF) [compound 643] | CD8
68 | 659 (HTTDPSFLGR) [compound 659] | CD8
69 | 546 (KLDDKDPNF) [compound 546] | CD8
70 | 683 (ITDVFYKENSY) [compound 683] | CD8
71 | 645 (YYTSNPTTFHL) [compound 645] | CD8
72 | 542 (MEVTPSGTWL) [compound 542] | CD8
73 | 651 (RTIKVFTTV) [compound 651] | CD8
74 | 630 (TTYPGQGLNGY) [compound 630] | CD8
75 | 502 (SPRWYFYYL) [compound 502] | CD8
76 | 537 (SASAFFGMSR) [compound 537] | CD8
77 | 657 (LRVEAFEYY) [compound 657] | CD8
78 | 625 (LTAVVIPTK) [compound 625] | CD8
79 | 648 (GEVITFDNL) [compound 648] | CD8

Same assay, conditions: T cell type (CD4 or CD8) recognizing the SARS-CoV-2 epitope; cited from earlier work

Row | Substance | Restriction
80 | 1006 (YLPYPDPSRIL) [compound 1006] | CD8
81 | 912 (SDGTGTIY) [compound 912] | CD8
82 | 976 (SAKNRARTV) [compound 976] | CD8
83 | 936 (VRQALLKTV) [compound 936] | CD8
84 | 948 (TSFGPLVRK) [compound 948] | CD8
85 | 1062 (FTDGVCLFW) [compound 1062] | CD8
86 | 938 (SLLMPILTL) [compound 938] | CD8
87 | 1071 (SLENVAFNV) [compound 1071] | CD8
88 | 1034 (YQKVGMQKY) [compound 1034] | CD8
89 | 1092 (CATVHTANKW) [compound 1092] | CD8
90 | 1060 (KIEELFYSY) [compound 1060] | CD8
91 | 986 (IMASLVLAR) [compound 986] | CD8
92 | 1036 (YYPSARIVY) [compound 1036] | CD8
